Source: ChEMBL document CHEMBL4814018, “Rationally designed TNF-α inhibitors: Identification of promising cytotoxic agents” (Bioorg Med Chem Lett, 2021)

System: BV-2
Assay: Cytotoxicity against mouse BV2 cells incubated for 48 hrs by MTT assay
Type: cell-based
Conditions: BV-2, 48 h

Work on `O=C1COCCN1c1ccc(N2C(=O)C(Cl)C2c2cn(Cc3ccc(Cl)cc3)c3ccccc23)cc1` (stereo unspecified) yielded an IC50 greater than 10 µM.
